From patent US7034035B2, “Fungicidal mono-, bi-, and tri-cycloheteroalkyl amides and their compositions, methods of use and preparation” (priority 1999, dated 2006)

How the values were obtained:
[1] = test system: Rhizoctonia solani (RHIZSO); experiment: microbe, parasite or virus in culture; type: cell-based
Ustilago maydis (USTIMA) = experiment: microbe, parasite or virus in culture; type: cell-based
Also: test concentration or dose not given here.

Row | SMILES | RHIZSO in vitro Growth Inhibition [1] | USTIMA in vitro Growth Inhibition (Ustilago maydis (USTIMA))
1 | COc1ccnc(C(=O)NCC2C(C=C(C)C)C2(C)C)c1O (stereo not drawn) [Compound 241] | + (key: +: at least 80% growth inhibition; −: less than 80% growth inhibition) | − (key: +: at least 80% growth inhibition; −: less than 80% growth inhibition)
2 | COc1ccnc(C(=O)NCC2COCCOCCOCCOCCO2)c1O (stereo not drawn) [Compound 245] | − (key: +: at least 80% growth inhibition; −: less than 80% growth inhibition) | − (key: +: at least 80% growth inhibition; −: less than 80% growth inhibition)
3 | COc1ccnc(C(=O)NC2CCC[C@H]3[C@H]4CC[C@H](C4)[C@@H]23)c1O (stereo partly drawn) [Compound 291] | + (key: +: at least 80% growth inhibition; −: less than 80% growth inhibition) | − (key: +: at least 80% growth inhibition; −: less than 80% growth inhibition)
4 | C[C@H](NC(=O)c1ncccc1O)c1cccc2ccccc12 [Compound 232] | − (key: +: at least 80% growth inhibition; −: less than 80% growth inhibition) | − (key: +: at least 80% growth inhibition; −: less than 80% growth inhibition)
5 | COc1ccnc(C(=O)NC2CC(C)(C)C3OC3[C@H](C)[C@H]2C)c1O (stereo partly drawn) [Compound 280] | − (key: +: at least 80% growth inhibition; −: less than 80% growth inhibition) | − (key: +: at least 80% growth inhibition; −: less than 80% growth inhibition)
6 | COc1ccnc(C(=O)N[C@H]2CC3CC2C[C@@H]3COCc2cccc(C(F)(F)F)c2)c1O (stereo partly drawn) [Compound 296] | + (key: +: at least 80% growth inhibition; −: less than 80% growth inhibition) | − (key: +: at least 80% growth inhibition; −: less than 80% growth inhibition)
7 | COc1ccnc(C(=O)N[C@@H]2CC3CC2[C@@H](c2ccccc2)[C@@H]3C(=O)OC(C)C)c1O (stereo partly drawn) [Compound 300] | + (key: +: at least 80% growth inhibition; −: less than 80% growth inhibition) | − (key: +: at least 80% growth inhibition; −: less than 80% growth inhibition)
8 | COc1ccnc(C(=O)N[C@@H]2OC[C@@H](OCc3ccccc3)[C@H](OCc3ccccc3)[C@H]2OCc2ccccc2)c1O [Compound 332] | − (key: +: at least 80% growth inhibition; −: less than 80% growth inhibition) | − (key: +: at least 80% growth inhibition; −: less than 80% growth inhibition)
9 | COc1ccnc(C(=O)NC2CC(C)(C)CC(C)(C3CC3)C2)c1O (stereo not drawn) [Compound 252] | + (key: +: at least 80% growth inhibition; −: less than 80% growth inhibition) | − (key: +: at least 80% growth inhibition; −: less than 80% growth inhibition)
10 | CCCO[C@@H]1[C@@H](OCCC)[C@H](OCCC)CO[C@H]1NC(=O)c1nccc(OC)c1O [Compound 331] | − (key: +: at least 80% growth inhibition; −: less than 80% growth inhibition) | − (key: +: at least 80% growth inhibition; −: less than 80% growth inhibition)
11 | COc1ccnc(C(=O)N[C@H]2O[C@@H](C)[C@@H](OC(C)=O)[C@@H](OC(C)=O)[C@@H]2OC(C)=O)c1O [Compound 333] | − (key: +: at least 80% growth inhibition; −: less than 80% growth inhibition) | − (key: +: at least 80% growth inhibition; −: less than 80% growth inhibition)
12 | COc1ccnc(C(=O)NCC#CCCl)c1O [Compound 239] | − (key: +: at least 80% growth inhibition; −: less than 80% growth inhibition) | − (key: +: at least 80% growth inhibition; −: less than 80% growth inhibition)
13 | COc1ccnc(C(=O)NC(C)c2ccc(C(F)(F)F)cc2)c1O (stereo not drawn) [Compound 247] | − (key: +: at least 80% growth inhibition; −: less than 80% growth inhibition) | − (key: +: at least 80% growth inhibition; −: less than 80% growth inhibition)
14 | O=C(NCCCCc1ccccc1)c1ncccc1O [Compound 234] | − (key: +: at least 80% growth inhibition; −: less than 80% growth inhibition) | − (key: +: at least 80% growth inhibition; −: less than 80% growth inhibition)
15 | COc1ccnc(C(=O)NC2CC(C)(C)C(=O)C(C)(C)C2)c1O [Compound 266] | − (key: +: at least 80% growth inhibition; −: less than 80% growth inhibition) | − (key: +: at least 80% growth inhibition; −: less than 80% growth inhibition)
16 | Cc1cccc(CNC(=O)c2ncccc2O)c1 [Compound 222] | − (key: +: at least 80% growth inhibition; −: less than 80% growth inhibition) | − (key: +: at least 80% growth inhibition; −: less than 80% growth inhibition)
17 | COCCCc1ccc2c(c1)OC(C)C(NC(=O)c1nccc(OC)c1O)C2=O (stereo not drawn) [Compound 322] | + (key: +: at least 80% growth inhibition; −: less than 80% growth inhibition) | − (key: +: at least 80% growth inhibition; −: less than 80% growth inhibition)
18 | Cc1ccnc(C(=O)NC2CC(C)(C)CC(C)(C)C2)c1O [Compound 236] | − (key: +: at least 80% growth inhibition; −: less than 80% growth inhibition) | − (key: +: at least 80% growth inhibition; −: less than 80% growth inhibition)

Row | SMILES | RHIZSO in vitro Growth Inhibition [1] | USTIMA in vitro Growth Inhibition (Ustilago maydis (USTIMA))
19 | O=C(NCc1cccc2ccccc12)c1ncccc1O [Compound 228] | − (key: +: at least 80% growth inhibition; −: less than 80% growth inhibition) | − (key: +: at least 80% growth inhibition; −: less than 80% growth inhibition)
20 | COc1ccnc(C(=O)NCCCc2cccnc2)c1O [Compound 243] | − (key: +: at least 80% growth inhibition; −: less than 80% growth inhibition) | − (key: +: at least 80% growth inhibition; −: less than 80% growth inhibition)
21 | COc1ccnc(C(=O)N[C@H]2CC3OC2[C@H](C)[C@@H](OCc2ccccc2)[C@H]3C)c1O (stereo partly drawn) [Compound 321] | − (key: +: at least 80% growth inhibition; −: less than 80% growth inhibition) | − (key: +: at least 80% growth inhibition; −: less than 80% growth inhibition)
22 | COc1ccnc(C(=O)NC2CCC(Sc3ccccc3)CC2)c1O (stereo not drawn) [Compound 275] | + (key: +: at least 80% growth inhibition; −: less than 80% growth inhibition) | − (key: +: at least 80% growth inhibition; −: less than 80% growth inhibition)
23 | O=C(NCc1ccc(Cl)c(Cl)c1)c1ncccc1O [Compound 221] | − (key: +: at least 80% growth inhibition; −: less than 80% growth inhibition) | − (key: +: at least 80% growth inhibition; −: less than 80% growth inhibition)
24 | COc1ccnc(C(=O)NC2CC(C(F)(F)F)CC(C(F)(F)F)C2)c1O (stereo not drawn) [Compound 256] | − (key: +: at least 80% growth inhibition; −: less than 80% growth inhibition) | − (key: +: at least 80% growth inhibition; −: less than 80% growth inhibition)
25 | COc1ccnc(C(=O)NC2CCCCCCC2)c1O [Compound 282] | − (key: +: at least 80% growth inhibition; −: less than 80% growth inhibition) | − (key: +: at least 80% growth inhibition; −: less than 80% growth inhibition)
26 | Cc1ccnc(C(=O)Nc2ccc(Oc3cccc(C(F)(F)F)c3)cc2)c1O [Compound 238] | − (key: +: at least 80% growth inhibition; −: less than 80% growth inhibition) | − (key: +: at least 80% growth inhibition; −: less than 80% growth inhibition)
27 | COc1ccnc(C(=O)NC2CC(C)(C)C=CC=C2C)c1O (stereo not drawn) [Compound 278] | − (key: +: at least 80% growth inhibition; −: less than 80% growth inhibition) | − (key: +: at least 80% growth inhibition; −: less than 80% growth inhibition)
28 | CC(C)C(=O)OC1CCC(NC(=O)c2ncccc2O)CC1 (stereo not drawn) [Compound 210] | − (key: +: at least 80% growth inhibition; −: less than 80% growth inhibition) | − (key: +: at least 80% growth inhibition; −: less than 80% growth inhibition)
29 | COc1ccnc(C(=O)NC2CCC[C@H]3CC(CCC=C(C)C)=CC[C@@H]23)c1O (stereo partly drawn) [Compound 286] | + (key: +: at least 80% growth inhibition; −: less than 80% growth inhibition) | − (key: +: at least 80% growth inhibition; −: less than 80% growth inhibition)
30 | COc1ccccc1CNC(=O)c1ncccc1O [Compound 224] | − (key: +: at least 80% growth inhibition; −: less than 80% growth inhibition) | − (key: +: at least 80% growth inhibition; −: less than 80% growth inhibition)
31 | O=C(OC1CCC(NC(=O)c2ncccc2O)CC1)c1ccccc1 (stereo not drawn) [Compound 211] | − (key: +: at least 80% growth inhibition; −: less than 80% growth inhibition) | − (key: +: at least 80% growth inhibition; −: less than 80% growth inhibition)
32 | COc1ccnc(C(=O)N[C@@H]2CC3CC2[C@H]2COC[C@@H]32)c1O (stereo partly drawn) [Compound 302] | − (key: +: at least 80% growth inhibition; −: less than 80% growth inhibition) | − (key: +: at least 80% growth inhibition; −: less than 80% growth inhibition)
33 | COc1ccnc(C(=O)NC2CC(C)(C)C(OC)C(C)(C)C2)c1O (stereo not drawn) [Compound 265] | − (key: +: at least 80% growth inhibition; −: less than 80% growth inhibition) | − (key: +: at least 80% growth inhibition; −: less than 80% growth inhibition)
34 | COc1ccnc(C(=O)NC2CC(C)(C)CC(C)(C(=O)OCCC(C)(C)C)C2)c1O (stereo not drawn) [Compound 261] | − (key: +: at least 80% growth inhibition; −: less than 80% growth inhibition) | − (key: +: at least 80% growth inhibition; −: less than 80% growth inhibition)
35 | COc1ccnc(C(=O)NC2CCN(C(=O)c3ccccc3)CC2)c1O [Compound 308] |  | − (key: +: at least 80% growth inhibition; −: less than 80% growth inhibition)
